Source: paper PMC5764481, “Synthesis, characterization and in vitro antitrypanosomal activities of new carboxamides bearing quinoline moiety” (PLoS ONE, 2018)
Values joined by “and” are separate entries in the source; they are usually repeats but may differ in a detail not shown here. Identical values can stand only once. Like-named read-outs stand apart in the source and are kept apart here.

Key:
T. b. gambiense strain = test: In vitro antitrypanosomal activities (LILIT, Alamar Blue); format: cell-based, Trypanosoma brucei gambiense
Description: In vitro antitrypanosomal activities against T. b. gambiense strain was described by Otoguro et al. In brief, T. b. gambiense strain was cultured in IMDM with various supplements and 10% heat-inactivated FBS at 37°C, under 5.0% CO2/95% air according to the method of Baltz et al. Ninety five […] of the trypanosomes suspension (2.0–2.5104 trypanosomes/mL for strain GUTat 3.1) was seeded in a 96-well microplate, and […] of a test compound solution (dissolved in 5.0% dimethylsulfoxide) was added followed by incubation for 72 h (long incubation-low inoculation test: LILIT). Ten […] of the fluorescent dye Alamar Blue was added to each well. After incubation for 3–6 h, the resulting solution was read at 528/20 nm excitation wavelength and 590/35 nm emission wavelength by a FLx800 fluorescent plate reader (Bio-Tek Instrument, Inc. Vermont, USA). Data were transferred into a spreadsheet program (Excel). The IC50 values were determined using fluorescent plate reader software (KC-4, Bio-Tek). Successive subcultures were done in 24-well tissue culture plates under the same conditions.

T. b. rhodesiense = details: cited from earlier work
[1] = Determination of LD50 in mice; details: mouse, in vivo, ip; male mice, intraperitoneal, observed 72 h
Description: Male mice were divided into various groups and test compounds were administered in various doses intraperitoneally. […] All behavioral changes and deaths during the observation periods were recorded. The percentage of death at each dose level was then calculated, converted to probits and the LD50 (μM/kg) values were calculated. To observe the health status of the mice, they were monitored 4 times a day. […] For the purpose of ameliorating the suffering of the dying mice, CO2 euthanasia was applied. All the dead mice were disposed in bio-safety containers in accordance with local standard protocols. The mortality rate in each group was calculated according to the formula: Mortalityrate(%)=(thenumberofdeadmice/thenumberofmiceinthegroup)×100.

people = details: cited from earlier work
[2] = Trypanosoma brucei, T. b. gambiense strain GUTat 3.1, 72 h incubation, Alamar Blue fluorescence, read-out: IC50

Row | Molecule | IC50 (T. b. gambiense strain; read-out: IC50) | further results
1 | 1-(4-Methylbenzenesulfonyl)-N-(quinolin-3-yl)pyrrolidine-2-carboxamide [Compound 11h] | 5 nM and 6 nM | 
2 | O=C(Nc1cnc2ccccc2c1)C(Cc1cc2ccccc2[nH]1)N(C(=O)c1ccccc1)S(=O)(=O)c1ccccc1 (stereo not shown) [Compound 11k, 2-[N-(benzenesulfonyl)-1-phenylformamido]-3-(1H-indol-2-yl)-N-(quinolin-3-yl)propanamide] |  | melting point: 73.5 to 73.8 °C; IC50 (T. b. gambiense strain; [2]): 109 ± 0.08 nM
3 | 2-[N-(benzenesulfonyl)-1-phenylformamido]-3-methyl-N-(quinolin-3-yl)butanamide [Compound 11n] | 1 nM | 
4 | 1-(Benzenesulfonyl)-4-hydroxy-N-(quinolin-3-yl)pyrrolidine-2-carboxamide [Compound 11o] | 3 nM | 
5 | 2-[N-(benzenesulfonyl)-1-phenylformamido]-3-methyl-N-(quinolin-3-yl)pentanamide [Compound 11m] | 125 ± 0.09 nM | 
6 | 4-Hydroxy-1-(4-nitrobenzenesulfonyl)-N-(quinolin-3-yl)pyrrolidine-2-carboxamide [Compound 11w] | 2 nM | 
7 | 1-(Benzenesulfonyl)-N-(quinolin-3-yl)pyrrolidine-2-carboxamide [Compound 11p] | 4 nM | 
8 | 1-(4-Nitrobenzenesulfonyl)-N-(quinolin-3-yl)pyrrolidine-2-carboxamide [Compound 11x] | 3 nM | 
9 | 3-Methyl-2-[N-(4-methylbenzenesulfonyl)-1-phenylformamido]-N-(quinolin-3-yl)butanamide [Compound 11f] | 3 nM | 
10 | 2-[N-(4-nitrobenzenesulfonyl)-1-phenylformamido]-3-phenyl-N-(quinolin-3-yl)propanamide [Compound 11r] | 108 ± 0.09 nM | 
11 | NCCCC(N)(C(=O)O)C(F)F (stereo not shown) [Eflornithine] |  | effectiveness against T. b. rhodesiense (T. b. rhodesiense): ineffective
12 | 2-[N-(4-nitrobenzenesulfonyl)-1-phenylformamido]-N-(quinolin-3-yl)acetamide [Compound 11q] | 128 ± 0.09 nM | 
13 | 4-Methyl-2-[N-(4-methylbenzenesulfonyl)-1-phenylformamido]-N-(quinolin-3-yl)pentanamide [Compound 11d] | 121 ± 0.05 nM | 
14 | 4-Hydroxy-1-(4-methylbenzenesulfonyl)-N-(quinolin-3-yl)pyrrolidine-2-carboxamide [Compound 11g] | 2 nM | 
15 | 2-[N-(benzenesulfonyl)-1-phenylformamido]-4-methyl-N-(quinolin-3-yl)pentanamide [Compound 11l] | 125 ± 0.1 nM | 
16 | Cc1ccc(S(=O)(=O)N(C(=O)c2ccccc2)C(Cc2cc3ccccc3[nH]2)C(=O)Nc2cnc3ccccc3c2)cc1 (stereo not shown) [Compound 11c, 3-(1H-indol-2-yl)-2-[N-(4-methylbenzenesulfonyl)-1-phenylformamido]-N-(quinolin-3-yl)propanamide] |  | melting point: 88.1 to 88.8 °C; IC50 (T. b. gambiense strain; [2]): 106 ± 0.03 nM
17 | Nc1nc(N)nc(Nc2ccc([As]3SCC(CO)S3)cc2)n1 (stereo not shown) [melarsoprol] |  | LD50 at 72 h [1]: 7.21 ± 0.28 µmol/kg; IC50 (T. b. gambiense strain; Trypanosoma brucei, GAMBIENSE, 72 h): 5 nM; people who die from adverse effects related to treatment (people): 1–5%
18 | 3-Methyl-2-[N-(4-nitrobenzenesulfonyl)-1-phenylformamido]-N-(quinolin-3-yl)butanamide [Compound 11v] | 1 nM | 
19 | 2-[N-(4-methylbenzenesulfonyl)-1-phenylformamido]-3-phenyl-N-(quinolin-3-yl)propanamide [Compound 11b] | 114 ± 0.05 nM | 
20 | 3-Methyl-2-[N-(4-nitrobenzenesulfonyl)-1-phenylformamido]-N-(quinolin-3-yl)pentanamide [Compound 11u] | 114 ± 0.03 nM | 
21 | 4-Methyl-2-[N-(4-nitrobenzenesulfonyl)-1-phenylformamido]-N-(quinolin-3-yl)pentanamide [Compound 11t] | 114 ± 0.09 nM | 
22 | 2-[N-(4-methylbenzenesulfonyl)-1-phenylformamido]-N-(quinolin-3-yl)acetamide [Compound 11a] | 136 ± 0.03 nM | 
23 | 2-[N-(benzenesulfonyl)-1-phenylformamido]-3-phenyl-N-(quinolin-3-yl)propanamide [Compound 11j] | 116 ± 0.04 nM | 
24 | 2-[N-(benzenesulfonyl)-1-phenylformamido]-N-(quinolin-3-yl)acetamide [Compound 11i] | 140 ± 0.03 nM | 
